In the test the target is T1, human type 1 glycine transporter (GlyT1) (Homo sapiens, UniProt P48067).
T1 construct: T98G cells (glioma cells) expressing human type 1 glycine transporter (GlyT1) were used; endogenous in cells; host or cells: T98G cells (human glioma cells)
T1 sequence (P48067 1-706): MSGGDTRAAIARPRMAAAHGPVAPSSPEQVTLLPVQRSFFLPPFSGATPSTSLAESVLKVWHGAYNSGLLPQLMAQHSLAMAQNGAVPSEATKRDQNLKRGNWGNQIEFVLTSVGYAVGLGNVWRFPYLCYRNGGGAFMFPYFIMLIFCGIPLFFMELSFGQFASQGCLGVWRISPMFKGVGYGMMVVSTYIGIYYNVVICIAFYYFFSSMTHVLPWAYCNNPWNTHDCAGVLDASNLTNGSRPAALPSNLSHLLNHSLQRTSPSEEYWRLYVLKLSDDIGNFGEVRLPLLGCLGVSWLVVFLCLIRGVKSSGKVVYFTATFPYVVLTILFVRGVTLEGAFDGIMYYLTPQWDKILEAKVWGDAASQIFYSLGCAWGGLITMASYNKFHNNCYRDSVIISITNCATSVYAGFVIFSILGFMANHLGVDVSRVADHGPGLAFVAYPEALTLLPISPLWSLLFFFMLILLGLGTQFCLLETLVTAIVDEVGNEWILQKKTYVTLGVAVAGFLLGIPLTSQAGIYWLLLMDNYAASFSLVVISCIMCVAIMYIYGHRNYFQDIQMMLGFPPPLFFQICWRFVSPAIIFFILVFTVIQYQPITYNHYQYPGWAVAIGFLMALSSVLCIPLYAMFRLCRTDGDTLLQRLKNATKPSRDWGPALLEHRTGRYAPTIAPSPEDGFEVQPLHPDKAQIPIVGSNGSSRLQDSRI
In words: Glycine uptake inhibition experiment ([3H] glycine uptake in T98G cells expressing GlyT1). Type of test: cell-based. In a few lines: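 T98G glioma cells expressing human GlyT1 were pretreated 10 min with compound in HEPES buffer pH 7.4 (0.2% BSA), then incubated with compound plus 250 nM final [3H]glycine for 15 min at room temperature. Intracellular radioactivity was counted after NaOH lysis; 10 μM ALX5407 defined non-specific uptake. IC50 came from 10^−9–10^−5 M curves.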

SMILES strings stand for the structures. pIC50: −log10 of the molar value. Like-named read-outs stand apart in the source and are kept apart here.

For orientation: pIC50 means the IC50 on a negative log10 scale, so that one unit is a factor of ten. A low value points to a high IC50. In turn, `COc1nc(CN2C(=O)C(F)(F)c3c(C(O)C(F)F)cccc32)ccc1F` (single isomer, unassigned) [Compound 265, 4-(2,2-difluoro-1-hydroxyethyl)-3,3-difluoro-1-[(5-fluoro-6-methoxypyridin-2-yl)methyl]-1,3-dihydro-2H-indol-2-one] gave a pIC50 (table section whose head prints (μm)) of 6.03.

`O=C1N(Cc2ccc(Cl)nc2)c2cccc(C(O)C(F)F)c2C1(F)F` (single isomer, unassigned) [Compound 160, 1-[(6-chloropyridin-3-yl)methyl]-4-(2,2-difluoro-1-hydroxyethyl)-3,3-difluoro-1,3-dihydro-2H-indol-2-one]: the pIC50 is 6.46.

`C[C@H](O)c1cccc2c1C(F)(F)C(=O)N2Cc1cccc2ccnn12` [Compound 104, 3,3-difluoro-4-[(1S)-1-hydroxyethyl]-1-(pyrazolo[1,5-a]pyridin-7-ylmethyl)-1,3-dihydro-2H-indol-2-one]: where the note is “glycine uptake inhibition”, the negative-log IC50 (pIC50) was 7.06.

For `C[C@@H](O)c1cccc2c1C(F)(F)C(=O)N2Cc1nc2ccccc2c(=O)n1C` [Compound 39, 2-({3,3-difluoro-4-[(1R)-1-hydroxyethyl]-2-oxo-2,3-dihydro-1H-indol-1-yl}methyl)-3-methylquinazolin-4(3H)-one], where the note is “glycine uptake inhibition”, the pIC50 was 6.21.

`C[C@H](O)c1cccc2c1C(F)(F)C(=O)N2Cc1ncc(Cl)cc1Cl` [Compound 225, 1-[(3,5-dichloropyridin-2-yl)methyl]-3,3-difluoro-4-[(1S)-1-hydroxyethyl]-1,3-dihydro-2H-indol-2-one] showed a negative logarithm of the IC50 (pIC50) of 7.24.

In the case of `C[C@H](O)c1cccc2c1C(F)(F)C(=O)N2Cc1ccccn1` [Compound 60, 3,3-difluoro-4-[(1S)-1-hydroxyethyl]-1-(pyridin-2-ylmethyl)-1,3-dihydro-2H-indol-2-one], the pIC50 (glycine uptake inhibition) was 6.64.

`COc1cc(CN2C(=O)C(F)(F)c3c([C@H](C)O)cccc32)ccn1` [Compound 124, 3,3-difluoro-4-[(1S)-1-hydroxyethyl]-1-[(2-methoxypyridin-4-yl)methyl]-1,3-dihydro-2H-indol-2-one] showed a pIC50 (glycine uptake inhibition) of 7.92.

In turn, `COc1ccnc(CN2C(=O)C(F)(F)c3c([C@H](C)O)cccc32)c1` [Compound 66, 3,3-difluoro-4-[(1S)-1-hydroxyethyl]-1-[(4-methoxypyridin-2-yl)methyl]-1,3-dihydro-2H-indol-2-one] had a negative logarithm of the IC50 (pIC50) (glycine uptake inhibition) of 6.89.

`O=C1N(Cc2cncc(Cl)c2)c2cc(F)cc(C(O)C(F)F)c2C1(F)F` (centres unmarked) [Compound 234, 1-[(5-chloropyridin-3-yl)methyl)-4-(2,2-difluoro-1-hydroxyethyl)-3,3,6-trifluoro-1,3-dihydro-2H-indol-2-one] showed a pIC50 of 6.21.

Turning to `C[C@H](O)c1cccc2c1C(F)(F)C(=O)N2Cc1cnccc1Cl` [Compound 207, 1-[(4-chloropyridin-3-yl)methyl]-3,3-difluoro-4-[(1S)-1-hydroxyethyl]-1,3-dihydro-2H-indol-2-one], the pIC50 is 7.03.

The molecule `O=C1N(Cc2cccc(Cl)n2)c2cccc(C(O)C(F)(F)F)c2C1(F)F` (single isomer, unassigned) [Compound 8, 1-[(6-chloropyridin-2-yl)methyl]-3,3-difluoro-4-(2,2,2-trifluoro-1-hydroxyethyl)-1,3-dihydro-2H-indol-2-one] had a pIC50 (glycine uptake inhibition) of 6.10.

Take `C[C@H](O)c1cccc2c1C(F)(F)C(=O)N2Cc1ccnc(C#N)c1` [Compound 40, 4-({3,3-difluoro-4-[(1S)-1-hydroxyethyl]-2-oxo-2,3-dihydro-1H-indol-1-yl}methyl)pyridine-2-carbonitrile]: the pIC50 (glycine uptake inhibition) is 7.42.

The molecule `C[C@H](O)c1cccc2c1C(F)(F)C(=O)N2Cc1ccc2nonc2c1` [Compound 76, 1-(2,1,3-benzoxadiazol-5-ylmethyl)-3,3-difluoro-4-[(1S)-1-hydroxyethyl]-1,3-dihydro-2H-indol-2-one] gave a pIC50 (glycine uptake inhibition) of 8.06.

`C[C@H](O)c1cccc2c1C(F)(F)C(=O)N2Cc1cc2ccccc2c(=O)[nH]1` [Compound 99, 3-({3,3-difluoro-4-[(1S)-1-hydroxyethyl]-2-oxo-2,3-dihydro-1H-indol-1-yl}methyl) isoquinolin-1(2H)-one] gave a pIC50 (glycine uptake inhibition) of 7.32.

`Cn1c(CN2C(=O)C(F)(F)c3c(C(O)C(F)F)cccc32)nc2cc(F)ccc2c1=O` (single isomer, unassigned) [Compound 178, 2-{[4-(2,2-difluoro-1-hydroxyethyl)-3,3-difluoro-2-oxo-2,3-dihydro-1H-indol-1-yl]methyl}-7-fluoro-3-methylquinazolin-4(3H)-one] gave a pIC50 of 7.36.

As for `COc1cncc(CN2C(=O)C(F)(F)c3c([C@H](C)O)cccc32)c1` [Compound 71, 3,3-difluoro-4-[(1S)-1-hydroxyethyl]-1-[(5-methoxypyridin-3-yl)methyl]-1,3-dihydro-2H-indol-2-one], for the setting “glycine uptake inhibition”, the pIC50 was 6.80.

Under “glycine uptake inhibition”, `C[C@H](O)c1cccc2c1C(F)(F)C(=O)N2Cc1noc2ccccc12` [Compound 119, 1-(1,2-benzoxazol-3-ylmethyl)-3,3-difluoro-4-[(1S)-1-hydroxyethyl]-1,3-dihydro-2H-indol-2-one] gave a pIC50 of 7.11.

In turn, `COc1cc(CN2C(=O)C(F)(F)c3c([C@@H](O)C(F)(F)F)cccc32)ccn1` [Compound 166, 3,3-difluoro-1-[(2-methoxypyridin-4-yl)methyl]-4-[(1R)-2,2,2-trifluoro-1-hydroxyethyl]-1,3-dihydro-2H-indol-2-one] showed a negative logarithm of the IC50 (pIC50) of 7.59.

The molecule `O=C1N(Cc2cccc(F)c2)c2cccc(C(O)C(F)F)c2C1(F)F` (single isomer, unassigned) [Compound 158, 4-(2,2-difluoro-1-hydroxyethyl)-3,3-difluoro-1-(3-fluorobenzyl)-1,3-dihydro-2H-indol-2-one] had a pIC50 (glycine uptake inhibition) of 7.80.

`COc1nc(Cl)ccc1CN1C(=O)C(F)(F)c2c([C@H](C)O)cccc21` [Compound 230, 1-[(6-chloro-2-methoxypyridin-3-yl)methyl]-3,3-difluoro-4-[(1S)-1-hydroxyethyl]-1,3-dihydro-2H-indol-2-one]: the negative logarithm of the IC50 (pIC50) is 7.20.

For the molecule `C[C@H](O)c1cccc2c1C(F)(F)C(=O)N2Cc1ncccc1Br` [Compound 211, 1-[(3-bromopyridin-2-yl)methyl]-3,3-difluoro-4-[(1S)-1-hydroxyethyl]-1,3-dihydro-2H-indol-2-one], the pIC50 was 7.07.

Under “glycine uptake inhibition”, `C[C@H](O)c1cccc2c1C(F)(F)C(=O)N2Cc1cncc(Cl)n1` [Compound 72, 1-[(6-chloropyrazin-2-yl)methyl]-3,3-difluoro-4-[(1S)-1-hydroxyethyl]-1,3-dihydro-2H-indol-2-one] had a pIC50 of 7.92.

As to `C[C@H](O)c1cccc2c1C(F)(F)C(=O)N2Cc1cccc(F)c1` [Compound 56, 3,3-difluoro-1-(3-fluorobenzyl)-4-[(1S)-1-hydroxyethyl)-1,3-dihydro-2H-indol-2-one], the pIC50 (glycine uptake inhibition) is 8.04.

In turn, `O=C1N(Cc2cccc(Cl)n2)c2cccc(C(O)C(F)F)c2C1(F)F` (single isomer, unassigned) [Compound 126, 1-[(6-chloropyridin-2-yl)methyl]-4-(2,2-difluoro-1-hydroxyethyl)-3,3-difluoro-1,3-dihydro-2H-indol-2-one] gave a pIC50 (glycine uptake inhibition) of 8.10.

Molecule `O=C1N(Cc2cncc(Cl)c2)c2c(F)ccc(C(O)C(F)F)c2C1(F)F` (single isomer, unassigned) [Compound 254, 1-[(5-chloropyridin-3-yl)methyl]-4-(2,2-difluoro-1-hydroxyethyl)-3,3,7-trifluoro-1,3-dihydro-2H-indol-2-one] had a pIC50 of 5.17.

For `O=C1N(Cc2cncc(Cl)c2)c2ccc(Cl)c([C@@H](O)C(F)(F)F)c2C1(F)F` [Compound 95, 5-chloro-1-[(5-chloropyridin-3-yl)methyl]-3,3-difluoro-4-[(1R)-2,2,2-trifluoro-1-hydroxyethyl]-1,3-dihydro-2H-indol-2-one], for the setting “glycine uptake inhibition”, the pIC50 is 6.00.

With `C[C@H](O)c1cccc2c1C(F)(F)C(=O)N2Cc1nc2ccccc2n1C` [Compound 75, 3,3-difluoro-4-[(1S)-1-hydroxyethyl]-1-[(1-methyl-1H-benzimidazol-2-yl)methyl]-1,3-dihydro-2H-indol-2-one], the pIC50 (glycine uptake inhibition) is 7.47.

For `O=C1N(Cc2cncc(Cl)c2)c2cccc(C(O)C(F)(F)F)c2C1(F)F` (single isomer, unassigned) [Compound 23, 1-[(5-chloropyridin-3-yl)methyl]-3,3-difluoro-4-(2,2,2-trifluoro-1-hydroxyethyl)-1,3-dihydro-2H-indol-2-one], the pIC50 (glycine uptake inhibition) is 7.42.

Under “glycine uptake inhibition”, `C[C@H](O)c1cccc2c1C(F)(F)C(=O)N2Cc1ccc(C(F)(F)F)cn1` [Compound 112, 3,3-difluoro-4-[(1S)-1-hydroxyethyl]-1-{[5-(trifluoromethyl)pyridin-2-yl]methyl}-1,3-dihydro-2H-indol-2-one] showed a pIC50 of 7.54.

(Values after patent US20160159814A1, “GLYCINE TRANSPORTER INHIBITOR” (TAISHO PHARMACEUTICAL CO., LTD., priority 2013, published 2016).)
